For nine compounds, GI50 and TGI results are on record in PubChem BioAssay (NCI).

For orientation: GI50 means the concentration giving 50% growth inhibition. The term TGI denotes the concentration giving total growth inhibition. Read a high TGI as lower sensitivity of the cells.

Each structure is given as a SMILES string. Several values for one entry are separate records, joined by “and”; a condition that tells them apart may be missing. Equal values may be shown once.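 Method: 48-hour compound exposure of cells in 96-well plates, five concentrations, linear interpolation of endpoints. GI50 is the concentration that inhibits growth by half. TGI denotes the concentration required for complete inhibition of growth.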

Test systems include HL-60(TB) leukemia; HCT-116 colon; SK-OV-3 ovarian; SF-268 CNS; UO-31 renal; PC-3 prostate; SF-295 CNS; NCI/ADR-RES ovarian; SK-MEL-5 melanoma; SK-MEL-2 melanoma.
Common to all, as to experiment: DTP human tumour cell line panel, 48 h

As to `C#CCN(Cc1nc2cc(C(F)(F)F)ccc2nc1-c1ccccc1)c1ccc(C)cc1`, the GI50 in the assay with HL-60(TB) leukemia is 3.85 µM; in the assay on HCT-116 colon, 0.628 µM; with SK-OV-3 ovarian it was 8.56 µM; in the assay on SF-268 CNS, 17 µM; in the assay with UO-31 renal, 13.2 µM; in the assay on PC-3 prostate, over 62.6 µM. Also, the GI50 in the assay on SF-295 CNS is 4.78 µM; in the assay with NCI/ADR-RES ovarian, 4.58 µM; with SK-MEL-5 melanoma, 17 µM; in the assay on SK-MEL-2 melanoma it was 6.19 µM. Besides, the TGI in the assay with HL-60(TB) leukemia was over 74.5 µM; in the assay with HCT-116 colon, 15.5 µM; with SK-OV-3 ovarian it was over 26.4 µM; with SF-268 CNS, over 100 µM; in the assay with UO-31 renal, 45.5 µM; in the assay with PC-3 prostate it was over 100 µM. The TGI in the assay on SF-295 CNS is over 31.8 µM; in the assay with SK-MEL-5 melanoma, over 32.4 µM; with SK-MEL-2 melanoma, 34.5 µM.
As to `O=C1NC2C(=CC(O)C(O)C2O)c2cc3c(cc21)OCO3` (configuration not stated), the TGI with HL-60(TB) leukemia was 0.282 µM and 0.213 µM and 0.594 µM; in the assay with HCT-116 colon it was 1.18 µM and 2.77 µM; with SK-OV-3 ovarian, 7.09 µM and 4.31 µM; with SF-268 CNS, 3.37 µM and 3.58 µM; in the assay on UO-31 renal, 2.29 µM and 2.41 µM; in the assay with PC-3 prostate, 2.08 µM. The TGI with SF-295 CNS is 3.26 µM and 2.39 µM; in the assay on NCI/ADR-RES ovarian, 0.561 µM and 3.38 µM; with SK-MEL-5 melanoma it was 0.936 µM and 5.01 µM and 1.23 µM; in the assay on SK-MEL-2 melanoma, 2.95 µM and 1.43 µM. Besides, the 50% growth inhibitory concentration (GI50) with HCT-116 colon was 0.282 µM and 0.101 µM; with SK-OV-3 ovarian, 0.232 µM and 0.272 µM; in the assay on SF-268 CNS, 0.354 µM and 0.337 µM; in the assay on UO-31 renal, 0.279 µM and 0.264 µM; with SF-295 CNS, 0.889 µM and 0.317 µM; with NCI/ADR-RES ovarian it was 0.152 µM. Moreover, the concentration for 50% growth inhibition (GI50) in the assay with SK-MEL-5 melanoma was 0.282 µM; with SK-MEL-2 melanoma it was 0.305 µM.
On to `COCCNc1ccc2c3c(cccc13)C(=O)N(CCN(C)C)C2=O`, for which the GI50 is 6.78 µM in the assay with HL-60(TB) leukemia; 6.65 µM in the assay on HCT-116 colon; 4.28 µM with SK-OV-3 ovarian; 8.95 µM with SF-268 CNS; 4.89 µM in the assay with UO-31 renal; 9.76 µM in the assay on PC-3 prostate. The GI50 with SF-295 CNS was 6.31 µM; with NCI/ADR-RES ovarian, 8.98 µM; with SK-MEL-5 melanoma it was 4.76 µM; in the assay with SK-MEL-2 melanoma, 8.24 µM. In addition, the TGI is 14.4 µM in the assay with HL-60(TB) leukemia; over 25 µM in the assay on HCT-116 colon; over 25 µM in the assay on SK-OV-3 ovarian; over 25 µM in the assay with SF-268 CNS; 19.5 µM with UO-31 renal; over 25 µM in the assay with PC-3 prostate. The TGI with SF-295 CNS is 21.1 µM; in the assay with NCI/ADR-RES ovarian, over 25 µM; in the assay on SK-MEL-5 melanoma it was 13.1 µM; in the assay on SK-MEL-2 melanoma it was over 25 µM.
Take `CC(N)(/C=C/c1ccccc1)C(=O)O` (configuration not stated): the TGI in the assay on HL-60(TB) leukemia, with HCT-116 colon, in the assay on SK-OV-3 ovarian, in the assay on SF-268 CNS, with UO-31 renal and in the assay with PC-3 prostate was over 100 µM in each case. Also, the TGI in the assay on SF-295 CNS, in the assay with NCI/ADR-RES ovarian, with SK-MEL-5 melanoma and in the assay on SK-MEL-2 melanoma was over 100 µM each time.
Take `Cc1cc(O)cc(C)c1/C=C/c1cncc(C(N)=O)c1`: the GI50 in the assay with HL-60(TB) leukemia was 2.29 µM; with HCT-116 colon, 1.34 µM; with SK-OV-3 ovarian, 3.66 µM; in the assay with SF-268 CNS, 3.99 µM; with UO-31 renal, 5.58 µM; with PC-3 prostate, 5.09 µM. In addition, the GI50 is 2.9 µM in the assay with SF-295 CNS, 1.07 µM with NCI/ADR-RES ovarian, 1.11 µM with SK-MEL-5 melanoma and 1.25 µM in the assay with SK-MEL-2 melanoma. For the same compound, the concentration for total growth inhibition (TGI) is over 12.9 µM in the assay with HL-60(TB) leukemia; over 25 µM in the assay on HCT-116 colon; over 17.6 µM in the assay on SK-OV-3 ovarian; over 25 µM with SF-268 CNS; over 25 µM with UO-31 renal; over 25 µM in the assay with PC-3 prostate. Further, the total growth inhibition concentration (TGI) is over 25 µM in the assay on SF-295 CNS, over 10.9 µM in the assay with NCI/ADR-RES ovarian, over 25 µM with SK-MEL-5 melanoma and 14 µM with SK-MEL-2 melanoma.
For `C=C1C(=O)O[C@H]2[C@H]1CC/C(C=Nc1c(N)cc(C(F)(F)F)cc1C(F)(F)F)=C\CC[C@@]1(C)O[C@@H]21`, the GI50 in the assay with HL-60(TB) leukemia was 0.801 µM; in the assay on HCT-116 colon, 1.06 µM; in the assay with SK-OV-3 ovarian, 3.26 µM; with SF-268 CNS, 1.55 µM; in the assay on UO-31 renal, 1.07 µM; with PC-3 prostate it was 1.54 µM. Besides, the GI50 was 5.1 µM in the assay on SF-295 CNS, 2 µM with NCI/ADR-RES ovarian, 1.35 µM in the assay with SK-MEL-5 melanoma and 1.41 µM with SK-MEL-2 melanoma. Moreover, the concentration for total growth inhibition (TGI) amounted to 27.2 µM in the assay with HL-60(TB) leukemia; 2.52 µM with HCT-116 colon; 11.5 µM in the assay with SK-OV-3 ovarian; 3.82 µM in the assay on SF-268 CNS; 2.38 µM in the assay with UO-31 renal; 4.4 µM in the assay on PC-3 prostate. The total growth inhibition concentration (TGI) came to 17.1 µM with SF-295 CNS, 5.75 µM in the assay with NCI/ADR-RES ovarian, 2.67 µM with SK-MEL-5 melanoma and 3.12 µM in the assay on SK-MEL-2 melanoma.
`Cn1nc(C(F)(F)F)cc1-c1c[nH]c(OCc2ccc(Cl)cc2)c(-c2ccc(Cl)c(C(F)(F)F)c2)c1=O`: the GI50 was 1.09 µM in the assay on HL-60(TB) leukemia; 0.927 µM in the assay with HCT-116 colon; 1.36 µM with SK-OV-3 ovarian; 1.08 µM with SF-268 CNS; 1.05 µM in the assay on UO-31 renal; 0.756 µM in the assay on PC-3 prostate. Also, the GI50 is 0.887 µM in the assay on SF-295 CNS, 1.42 µM in the assay on NCI/ADR-RES ovarian, 0.568 µM in the assay with SK-MEL-5 melanoma and 0.761 µM in the assay with SK-MEL-2 melanoma. The TGI was 2.55 µM with HL-60(TB) leukemia; 4.51 µM in the assay on HCT-116 colon; 4.19 µM in the assay with SK-OV-3 ovarian; over 23.8 µM in the assay with SF-268 CNS; 3.56 µM in the assay with UO-31 renal; 4.32 µM in the assay on PC-3 prostate. Further, the total growth inhibition concentration (TGI) in the assay on SF-295 CNS was 2.18 µM; in the assay with NCI/ADR-RES ovarian, over 50 µM; in the assay with SK-MEL-5 melanoma it was 1.34 µM; in the assay on SK-MEL-2 melanoma it was 2.52 µM.
In the case of `O=C(O)C(C(=O)O)P(=S)(S)c1ccccc1` (configuration not stated), the total growth inhibition concentration (TGI) with HL-60(TB) leukemia, in the assay on HCT-116 colon, in the assay on SK-OV-3 ovarian, in the assay on SF-268 CNS, in the assay on UO-31 renal and with PC-3 prostate was over 100 µM each time. In addition, the concentration for total growth inhibition (TGI) is over 100 µM in the assay with SF-295 CNS, over 100 µM in the assay on NCI/ADR-RES ovarian, over 31.6 µM in the assay on SK-MEL-5 melanoma and over 100 µM in the assay on SK-MEL-2 melanoma.
Consider `CONC(C)=O`, for which the TGI in the assay with HL-60(TB) leukemia, in the assay on HCT-116 colon, in the assay with SK-OV-3 ovarian, in the assay on SF-268 CNS, with UO-31 renal and in the assay on PC-3 prostate was over 100 µM in each case. Further, the TGI with SF-295 CNS, in the assay on NCI/ADR-RES ovarian, in the assay on SK-MEL-5 melanoma and in the assay with SK-MEL-2 melanoma was over 100 µM each time.
